Data published in patent US8895750B2, “Heteroaromatic compounds as BTK inhibitors” (Boehringer Ingelheim International GmbH, priority 2013, dated 2014).

Target: T1, full-length human His-tagged BTK (Homo sapiens, UniProt Q06187)
T1 construct: 6 nM of full-length human His-tagged BTK (Life Technologies cat #PV3587); His; purchased Life Technologies PV3587
Test: BTK HTRF assay (Cisbio KinEASE-TK)
Assay type: biochemical
Conditions: 6 nM BTK, 15 min preincubation at 28° C., 1 uM TK substrate-biotin, 30 uM ATP
Method: An HTRF assay (Cisbio KinEASE-TK cat #62TK0PEC) was performed to quantitate the ability of test compounds to inhibit BTK mediated phosphorylation of substrate. Assays were assembled in 384 well plates where 6 nM of full-length human His-tagged BTK (Life Technologies cat #PV3587) and test compound at varying concentrations were preincubated for 15 minutes at 28° C. Then, 1 uM of TK substrate-biotin and 30 uM ATP were added and incubated for an additional 30 minutes at 28° C. Phospohrylation was detected by adding 62.5 nM Streptavidin-XL665 and TK-Antibody Cryptate diluted 1:100 in HTRF detection buffer (Cisbio cat #62SDBRDF) and incubated for 60 minutes at RT. The plate was read on an Envision plate reader and the fluoresence is measured at 620 nm (cryptate) and 665 nm (XL665). A ratio is calculated (665/620) and converted to POC relative to control and blank wells.
50 mM HEPES (Invitrogen #15630), 0.01% Brij-35 (sigma #B4184), 10 mM MgC12 (Sigma M1028), 1 mM EGTA (Ambion AM9262) and 100 uM sodium orthovanedate (Sigma S6508), 1 mM DTT (Sigma D5545) and 10 nM supplement enzyme buffer (Cisbio cat#61SEBALB).

T1 sequence (Q06187 whole entry): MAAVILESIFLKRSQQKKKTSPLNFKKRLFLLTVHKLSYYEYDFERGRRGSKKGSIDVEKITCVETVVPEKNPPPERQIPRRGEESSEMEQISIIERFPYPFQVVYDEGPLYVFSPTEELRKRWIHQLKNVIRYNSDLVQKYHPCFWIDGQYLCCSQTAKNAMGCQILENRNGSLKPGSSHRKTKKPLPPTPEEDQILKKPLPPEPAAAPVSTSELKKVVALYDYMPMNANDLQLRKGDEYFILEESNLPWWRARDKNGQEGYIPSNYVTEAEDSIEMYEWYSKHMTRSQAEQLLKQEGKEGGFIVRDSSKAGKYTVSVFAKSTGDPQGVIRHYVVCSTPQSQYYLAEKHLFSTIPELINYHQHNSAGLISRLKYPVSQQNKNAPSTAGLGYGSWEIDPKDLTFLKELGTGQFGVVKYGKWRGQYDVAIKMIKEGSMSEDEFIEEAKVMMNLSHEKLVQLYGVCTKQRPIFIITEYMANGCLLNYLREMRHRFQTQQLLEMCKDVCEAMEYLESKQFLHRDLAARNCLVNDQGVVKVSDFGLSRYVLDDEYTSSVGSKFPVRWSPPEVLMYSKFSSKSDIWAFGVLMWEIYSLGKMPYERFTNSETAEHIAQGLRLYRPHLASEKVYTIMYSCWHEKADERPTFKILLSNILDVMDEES

| IC50 | Compound |
| --- | --- |
| 8.5 nM | C=CC(=O)N1CCC2(C1)CN(c1nc(-c3ccc(Oc4ccccc4)cc3)c(C(N)=O)s1)C2 [Example 1] |
| 4.8 nM | C=CC(=O)N(C)C1CCN(c2nc(-c3ccc(Oc4ccccc4)cc3)c(C(N)=O)s2)CC1 [Example 2] |
| 2.6 nM | CC#CC(=O)N(C)C1CCN(c2nc(-c3ccc(Oc4ccccc4)cc3)c(C(N)=O)s2)CC1 [Example 3] |
| 95 nM | CC#CC(=O)N[C@@H]1CCCN(c2nc(-c3ccc(Oc4ccccc4)cc3)c(C(N)=O)s2)C1 [Example 4] |
| 13 nM | C=CC(=O)N[C@@H]1CCCN(c2nc(-c3ccc(Oc4ccccc4)cc3)c(C(N)=O)s2)C1 [Example 5] |
| 0.3 nM | C=CC(=O)N1CCN(c2nc(-c3ccc(Oc4ccccc4)cc3)c(C(N)=O)s2)CC1 [Example 6] |
| 0.67 nM | CC#CC(=O)N1CCN(c2nc(-c3ccc(Oc4ccccc4)cc3)c(C(N)=O)s2)CC1 [Example 7] |
| 5.6 nM | C=CC(=O)N1CC2(CCN(c3nc(-c4ccc(Oc5ccccc5)cc4)c(C(N)=O)s3)C2)C1 [Example 8] |
| 4.3 nM | CC#CC(=O)N1CC2(CCN(c3nc(-c4ccc(Oc5ccccc5)cc4)c(C(N)=O)s3)C2)C1 [Example 9] |
| 110 nM | CN(C)C/C=C/C(=O)N1CC2(CCN(c3nc(-c4ccc(Oc5ccccc5)cc4)c(C(N)=O)s3)C2)C1 [Example 10] |
| 8.8 nM | CC#CC(=O)N1CC2(C1)CN(c1nc(-c3ccc(Oc4ccccc4)cc3)c(C(N)=O)s1)C2 [Example 11] |
| 4.1 nM | C=CC(=O)N1CC2(C1)CN(c1nc(-c3ccc(Oc4ccccc4)cc3)c(C(N)=O)s1)C2 [Example 12] |
| 510 nM | CN(C)C/C=C/C(=O)N1CC2(C1)CN(c1nc(-c3ccc(Oc4ccccc4)cc3)c(C(N)=O)s1)C2 [Example 13] |
| > 1000 nM | C/C=C/C(=O)N1CC2(C1)CN(c1nc(-c3ccc(Oc4ccccc4)cc3)c(C(N)=O)s1)C2 [Example 14] |
| > 1000 nM | NC(=O)c1sc(N2CC3(CN(C(=O)/C=C/CN4CCOCC4)C3)C2)nc1-c1ccc(Oc2ccccc2)cc1 [Example 15] |
| 1.2 nM | CC#CC(=O)N1C[C@@H]2C[C@H]1CN2c1nc(-c2ccc(Oc3ccccc3)cc2)c(C(N)=O)s1 [Example 16] |
| 0.87 nM | C=CC(=O)N1CCN(c2nc(-c3ccc(Oc4ccccc4)cc3)c(C(N)=O)s2)[C@@H](C)C1 [Example 17] |
| 0.62 nM | CC#CC(=O)N1[C@@H]2CC[C@H]1CN(c1nc(-c3ccc(Oc4ccccc4)cc3)c(C(N)=O)s1)C2 [Example 18] |
| 0.48 nM | C=CC(=O)N1[C@@H]2CC[C@H]1CN(c1nc(-c3ccc(Oc4ccccc4)cc3)c(C(N)=O)s1)C2 [Example 19] |
| 350 nM | C[C@H](Cl)C(=O)N1CC2(C1)CN(c1nc(-c3ccc(Oc4ccccc4)cc3)c(C(N)=O)s1)C2 [Example 20] |
| 1.2 nM | CC#CC(=O)N1CCN(c2nc(-c3ccc(Oc4ccccc4)cc3)c(C(N)=O)s2)[C@@H](C)C1 [Example 21] |
| 2 nM | CN(C)C/C=C/C(=O)N1CCN(c2nc(-c3ccc(Oc4ccccc4)cc3)c(C(N)=O)s2)CC1 [Example 22] |
| 43 nM | C=CC(=O)N1CCCC12CCN(c1nc(-c3ccc(Oc4ccccc4)cc3)c(C(N)=O)s1)CC2 [Example 23] |

| IC50 | Compound |
| --- | --- |
| 150 nM | CC#CC(=O)N1CCCC12CCN(c1nc(-c3ccc(Oc4ccccc4)cc3)c(C(N)=O)s1)CC2 [Example 24] |
| 1 nM | CC#CC(=O)N1CCN(c2nc(-c3ccc(Oc4ccccc4)cc3)c(C(N)=O)s2)CC1C (stereo not shown) [Example 25] |
| 69 nM | CN(C)CCC(=O)N1CCN(c2nc(-c3ccc(Oc4ccccc4)cc3)c(C(N)=O)s2)CC1 [Example 26] |
| 710 nM | C=CC(=O)N1CCN(c2nc(-c3cnn(Cc4ccccc4)c3)c(C(N)=O)s2)CC1 [Example 27] |
| > 1000 nM | CC#CC(=O)N1CCN(c2nc(-c3cnn(Cc4ccccc4)c3)c(C(N)=O)s2)CC1 [Example 28] |
| 6.6 nM | C=CC(=O)N1CCN(c2nc(-c3ccc(Br)cc3)c(C(N)=O)s2)CC1 [Example 29] |
| 73 nM | CC#CC(=O)N1CCN(c2nc(-c3ccc(Br)cc3)c(C(N)=O)s2)CC1 [Example 30] |
| > 1000 nM | CCC(=O)N1CC2(C1)CN(c1nc(-c3ccc(Oc4ccccc4)cc3)c(C(N)=O)s1)C2 [Example 31] |
| 17 nM | C=CC(=O)N1CCN(c2nc(-c3ccc(Oc4ccccc4)nc3)c(C(N)=O)s2)CC1 [Example 32] |
| 180 nM | CC#CC(=O)N1CCN(c2nc(-c3ccc(Oc4ccccc4)nc3)c(C(N)=O)s2)CC1 [Example 33] |
| 700 nM | C/C=C/C(=O)N1CCN(c2nc(-c3ccc(Oc4ccccc4)nc3)c(C(N)=O)s2)CC1 [Example 34] |
| 11 nM | C=CC(=O)NC[C@@H]1CCCN1c1nc(-c2ccc(Oc3ccccc3)cc2)c(C(N)=O)s1 [Example 35] |
| 14 nM | CC#CC(=O)NC[C@@H]1CCCN1c1nc(-c2ccc(Oc3ccccc3)cc2)c(C(N)=O)s1 [Example 36] |
| 0.65 nM | CC(C)(O)C#CC(=O)N1CCN(c2nc(-c3ccc(Oc4ccccc4)cc3)c(C(N)=O)s2)CC1 [Example 37] |
| > 1000 nM | CC#CC(=O)N1CCN(c2nc(-c3ccc(S(C)(=O)=O)cc3)c(C(N)=O)s2)CC1 [Example 38] |
| 0.69 nM | NC(=O)c1sc(N2CCN(C(=O)C#CCO)CC2)nc1-c1ccc(Oc2ccccc2)cc1 [Example 39] |
| 120 nM | C=CC(=O)NC[C@H]1CCCN1c1nc(-c2ccc(Oc3ccccc3)cc2)c(C(N)=O)s1 [Example 40] |
| 30 nM | CC#CC(=O)NC[C@H]1CCCN1c1nc(-c2ccc(Oc3ccccc3)cc2)c(C(N)=O)s1 [Example 41] |
| 0.7 nM | NC(=O)c1sc(N2CCN(C(=O)C#CCN3CCOCC3)CC2)nc1-c1ccc(Oc2ccccc2)cc1 [Example 42] |
| 52 nM | CN(C)C/C=C/C(=O)NC[C@@H]1CCCN1c1nc(-c2ccc(Oc3ccccc3)cc2)c(C(N)=O)s1 [Example 43] |
| 560 nM | CN(C)C/C=C/C(=O)NC[C@H]1CCCN1c1nc(-c2ccc(Oc3ccccc3)cc2)c(C(N)=O)s1 [Example 44] |
| 40 nM | CC#CC(=O)N1CCN(c2nc(-c3ccc(Oc4ccccc4)cn3)c(C(N)=O)s2)CC1 [Example 45] |
| > 1000 nM | CC#CC(=O)N1CCN(c2nc(-c3cccc(C(=O)Nc4ccccc4)c3)c(C(N)=O)s2)CC1 [Example 46] |
